Tested on: MRC-5 human lung normal fibroblast cells
Assay: Fluorescence intensity as a function of incubation time in normal cells
Type: cell-based
Conditions: MRC-5 cells
Experimental: The fluorescence intensity of 3,6-bis(1-methyl-4-vinylpyridinium)carbazole diiode (BMVC) described in Kang et al., J. Chin. Chem. Soc., 2005, 52, 1069-1072 and Compound 3 were measured in CL1-0 lung cancer cells and MRC-5 human lung normal fibroblast cells as a function of incubation time.

For `C[n+]1ccc(C=Cc2ccc3[nH]c4ccc(C=Cc5cc[n+](C)cc5)cc4c3c2)cc1.[I-].[I-]` [BMVC, 3,6-bis(1-methyl-4-vinylpyridinium)carbazole diiode], the “fluorescence in normal cells” value was “weak fluorescence in normal cells”.

— patent publication US8431708B2, “Fluorescent carbazole compounds for cancer diagnosis” (Academia Sinica, priority 2009, dated 2013)
